According to ChEMBL document CHEMBL1137865, “Modeling the binding affinities of beta-secretase inhibitors: application to subsite specificity” (Bioorg Med Chem Lett, 2004):
Starred links: 1 amine or outer side, 2 acyl side, 3 side chain; linkers in the order of their positions; H or OH if unused. Non-standard residues stand in square brackets, D forms with d. Residues, ends and D or L forms follow the SMILES beside them. *: point of attachment. LeuΨ(S-CHOHCH2)Ala = CC(C)C[C@H](N[*:1])[C@@H](O)C[C@@H](C)C(=O)[*:2]; X1 = O=C(O)CC[C@H](N*)C(=O)C[C@@H](Cc1ccccc1)C(=O)O

Biological target: Beta-secretase 1 (Homo sapiens, UniProt P56817)
Experiment: Binding affinity against Beta-secretase

Beta-secretase 1, sequence (P56817 whole entry): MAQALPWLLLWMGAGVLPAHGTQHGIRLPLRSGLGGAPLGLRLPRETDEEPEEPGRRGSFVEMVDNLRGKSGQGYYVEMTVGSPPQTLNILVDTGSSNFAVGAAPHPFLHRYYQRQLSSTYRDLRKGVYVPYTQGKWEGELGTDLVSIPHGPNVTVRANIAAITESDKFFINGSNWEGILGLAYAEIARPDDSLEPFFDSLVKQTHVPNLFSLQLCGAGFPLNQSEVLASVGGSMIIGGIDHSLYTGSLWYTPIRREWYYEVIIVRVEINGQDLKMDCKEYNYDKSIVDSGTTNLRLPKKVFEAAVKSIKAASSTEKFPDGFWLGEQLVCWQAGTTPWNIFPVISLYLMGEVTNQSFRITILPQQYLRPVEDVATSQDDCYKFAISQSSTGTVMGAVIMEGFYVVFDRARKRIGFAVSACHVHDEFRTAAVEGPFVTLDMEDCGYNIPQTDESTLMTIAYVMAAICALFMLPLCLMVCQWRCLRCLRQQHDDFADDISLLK

Ki [µM] | IC50 [µM] | SMILES
3.13 | – | CC(C)C[C@H](NCC(=O)[C@H](CC(N)=O)NC(=O)OC(C)(C)C)C(O)CC(C)C(=O)NC(C(=O)NCc1ccccc1)C(C)C (some centres undefined)
– | 0.05 | CCCN(CCC)C(=O)c1cccc(C(=O)N[C@@H](Cc2cc(F)cc(F)c2)[C@@H](O)C[C@@H](CC)C(=O)NC[C@H]2CC[C@H](C(=O)O)CC2)c1
0.00032 | – | CC(C)C[C@H](NC(=O)[C@@H](N)CCC(=O)O)C(=O)N[C@@H](CC(=O)O)C(=O)N[C@@H](CC(C)C)[C@@H](O)C[C@@H](C)C(=O)N[C@H](C(=O)N[C@@H](CCC(=O)O)C(=O)C[C@@H](Cc1ccccc1)C(=O)O)C(C)C (H-ELD[LeuΨ(S-CHOHCH2)Ala]V-X1)
– | 2.8 | CCCN(CCC)C(=O)c1cccc(C(=O)N[C@@H](Cc2cc(F)cc(F)c2)[C@@H](O)C[C@@H](CC)C(=O)NCCC(=O)O)c1
– | 6.6 | CCCN(CCC)C(=O)c1cccc(C(=O)N[C@@H](Cc2cc(F)cc(F)c2)[C@@H](O)C[C@@H](CC)C(=O)N[C@H]2C[C@@H](OC)C[C@@H](OC)C2)c1
– | 1.4 | CCCN(CCC)C(=O)c1cccc(C(=O)N[C@@H](Cc2cc(F)cc(F)c2)[C@@H](O)C[C@@H](CC)C(=O)NCc2ccccc2)c1
22.4 | – | CC(C)C[C@H](NCC(=O)[C@H](CC(N)=O)NC(=O)OC(C)(C)C)C(O)CC(C)C(=O)NC(C)C(=O)NCc1ccccc1 (some centres undefined)
– | 0.4 | CCCN(CCC)C(=O)c1cccc(C(=O)N[C@@H](Cc2cc(F)cc(F)c2)[C@@H](O)C[C@@H](CC)C(=O)NCCCCC(=O)O)c1
1.13 | – | CC(C)C[C@H](NCC(=O)[C@H](CS(C)(=O)=O)NC(=O)OC(C)(C)C)C(O)CC(C)C(=O)NC(C(=O)NCc1ccccc1)C(C)C (some centres undefined)
